{"source": "patent US20210395406A1", "about": "“REVERSIBLE CROSS-LINKING SYSTEM FOR POLYVINYLAMINES” (SOLENIS TECHNOLOGIES, L.P., priority 2020, published 2021)", "key": {"[1]": {"experiment": "Water solubility of cross-linkers"}, "[2]": {"experiment": "Reversibility of cross-linking by means of pH-change", "assay_type": "physicochemical", "conditions": "gel of 3.9 g Example 2.1 at pH 7 crosslinked with 0.075 g OBP, after adding 2 ml hydrochloric acid (10 w %)", "description": "3.9 g Example 2.1 at 7 pH stained with rhodamine B were crosslinked with 0.075 g OBP dissolved in 1 mL water at RT. The cross-linking reaction produces within a few seconds a solid gel. After adding 2 ml of hydrochloric acid (10 w %) it takes about 2 h till the gel is completely liquefied. When setting the pH back to neutral by adding caustic the gel is instantaneously formed again."}, "[3]": {"experiment": "Oscillatory shear rheology of PVAm hydrogels cross-linked with OBP", "assay_type": "physicochemical", "description": "To investigate the mechanical properties of the hydrogel and to confirm the formation of cross-linking points from a mechanical point of view, dynamic rheological measurements were performed. Hydrogel samples with a varying degree of cross-linking (DC=n(OBP)/n(Am) [mol %]) in the range of 1-5 mol % and a water content of 94 wt % were analyzed under oscillatory shear. […] All samples show an elastic response over the entire frequency range, with G′ distinctly exceeding G″ by two magnitudes. Additionally, a frequency independent behavior for G′ is observed.\nRheological properties of the hydrogels were analyzed via oscillatory shear experiments on the strain-controlled rotational rheometer Ares G2 (TA Instruments, Eschborn, Germany). Hydrogel samples with a varying degree of cross-linking (DC) between 1 and 5 mol % (DC=n(OBP)/n(Am) [mol %]) were prepared in a cylindrical PTFE mold with a diameter of ˜30 mm to obtain uniform disc-shaped specimens. The cross-linking agent (OBP) was first dissolved in 1 ml H2O and then mixed with 3 ml of the 6.6 wt % PVAm solution. The mold was sealed and the cross-linking reaction was allowed to proceed overnight.\nThe test geometry was a 30 mm diameter plate made from aluminum. The geometry was lowered until a constant axial force of 0.5 N was applied to the sample and the temperature was controlled to 25±0.1° C. by a Peltier element (Advanced Peltier System, TA Instruments). First, an oscillatory strain sweep was performed with a constant frequency of f=1 Hz by varying the strain from γ0=0.01-1000% to determine the linear viscoelastic (LVE) regime. The values at a strain of γ0=0.1% were chosen to be representative for the LVE regime. Subsequently, frequency sweeps were employed at a fixed strain of 0.1% while the frequency was varied from 0.03 to 100 Hz. To study the self-healing properties, the sample with DC=3 mol % was cut and subsequently cured in a sealed mold at 70° C. for 3 h."}}, "note": "Structures can show the parent of a compound that is named as a salt.", "data": [{"smiles": "O=C1CCN(C(=O)c2ccc(C(=O)N3CCC(=O)CC3)cc2)CC1", "note": "[Example 1.2, 1,1′-Terephthaloylbis(piperidin-4-one)]", "values": [{"measurement": "solubility", "setting": "[1]", "value": 0.5, "unit": "mg/mL"}]}, {"smiles": "O=C1CCN(C(=O)C(=O)N2CCC(=O)CC2)CC1", "note": "[Example 1.1, 1,2-bis(4-oxopiperidin-1-yl)ethane-1,2-dione]", "values": [{"measurement": "solubility", "setting": "[1]", "value": 60, "unit": "mg/mL"}, {"measurement": "time till the gel is completely liquefied", "setting": "[2]", "value": "about 2 h"}, {"measurement": "mechanical strength", "setting": "[3]; PVAm hydrogels cross-linked with OBP, at higher DC values, water content 94 wt %", "value": "up to 15 kPa"}, {"measurement": "storage modulus", "setting": "[3]; PVAm/OBP hydrogel DC=3 mol %, after first self-healing cycle", "value": "~6", "unit": "kPa"}, {"measurement": "storage modulus", "setting": "[3]; PVAm/OBP hydrogel DC=3 mol %, before first self-healing cycle", "value": "approximately 7 kPa"}, {"measurement": "decrease of G′", "setting": "[3]; PVAm/OBP hydrogel DC=3 mol %, cut and measured directly without curing", "value": 42, "unit": "%"}, {"measurement": "decrease of the storage modulus", "setting": "[3]; PVAm/OBP hydrogel DC=3 mol %, first self-healing cycle, cut and cured at 70° C. for 3 h", "value": 14, "unit": "%"}]}, {"smiles": "O=C1CCN(C(=O)C(=O)N2CCC(=O)CC2)CC1", "note": "(as salt: hydrochloride) (hydrate or solvate) [Example 1.1, 1,2-bis(4-oxopiperidin-1-yl)ethane-1,2-dione]", "values": [{"measurement": "melting point", "value": 174, "unit": "°C"}]}]}
